The values that follow come from the OPERA property sets (Mansouri et al. 2018).

A word on the logP: it is the decadic logarithm of the partition coefficient of the neutral form, usually between octanol and water.

Molecules are shown by their SMILES.

The compound `CC(C)(C)NCC(O)COCCOc1ccccc1` (stereo not given) displayed a logP of 2.35. `O=C(Cc1ccccc1)NCCNCC(O)OCc1ccccc1` (stereo not given) came in with a logP of 1.05. For the compound `O=C(Cc1ccccc1)NCCNCC(O)COCCCc1ccccc1` (stereo not given), the logP turned out to be 1.62.

As for `CC(C)C(=O)NCCNCC(O)COCCCc1ccccc1` (stereo not given), the logP stood at 1.25. The compound `O=C(Cc1ccccc1)NCCNCC(O)COCC=Cc1ccccc1` (stereo not given) had a logP of 1.76. On to `CC(C)C(=O)NCCNCC(O)COCc1ccccc1` (stereo not given), for which the logP turned out to be 0.63. On to `CC(C)NCC(O)COCCc1ccccc1` (stereo not given), for which the logP came out at 1.76. Regarding `O=C(Cc1ccccc1)NCCNCC(O)COCCc1ccccc1` (stereo not given), the logP was determined as 1.24. In turn, `O=C(Cc1ccccc1)NCCNCC(O)COc1ccccc1` (stereo not given) registered a logP of 0.63.

For the compound `CC(C)NCC(O)COCCCC(C)c1ccccc1` (stereo not given), the logP was found to be 2.95. Consider `CC(C)(C)NCC(O)COCc1ccccc1` (stereo not given), for which the logP came to 1.7. Consider `CC(C)NCC(O)COCCOc1ccccc1` (stereo not given), for which the logP stood at 1.63. With `CC(C)(C)NCC(O)COCCc1ccccc1` (stereo not given), the logP was 2.52.

In the case of `O=C(Cc1ccccc1)NCCNCC(O)COCCOc1ccccc1` (stereo not given), the logP came to 0.75. For the compound `CC(C)C(=O)NCCNCC(O)COC1CCCc2ccccc21` (stereo not given), the logP amounted to 1.99.

`CC(C)(C)NCC(O)COCC=Cc1ccccc1` (stereo not given) had a logP of 2.29.

For `CC(C)C(=O)NCCNCC(O)COCC=Cc1ccccc1` (stereo not given), the logP amounted to 0.51.

`CC(C)C(=O)NCCNCC(O)COCCc1ccccc1` (stereo not given) gave a logP of 0.95.

As for `CC(C)C(=O)NCCNCC(O)COCCOc1ccccc1` (stereo not given), the logP was found to be 0.48. Compound `O=C(Cc1ccccc1)NCCNCC(O)COC1CCCc2ccccc21` (stereo not given) registered a logP of 1.68. In the case of `CC(C)NCC(O)COCC=Cc1ccccc1` (stereo not given), the logP was 2.15. Compound `CC(C)(C)NCC(O)COc1ccccc1` (stereo not given) yielded a logP of 1.5.

Turning to `CC(C)NCC(O)COCc1ccccc1` (stereo not given), the logP came to 1.62. For the compound `CC(C)(C)NCC(O)COC1CCCc2ccccc21` (stereo not given), the logP was determined as 3.55. As for `CC(C)C(=O)NCCNCC(O)COc1ccccc1` (stereo not given), the figure is 1.14.
